Starred links: 1 amine or outer side, 2 acyl side, 3 side chain; linkers in the order of their positions; H or OH if unused. Non-standard residues stand in square brackets, D forms with d. Residues, ends and D or L forms follow the SMILES beside them. Groups on a side chain read outwards from the residue. *: point of attachment. C20 diacid = O=C(O)CCCCCCCCCCCCCCCCCCC(=O)*; γGlu = O=C(O)[C@H](CCC(=O)[*:2])N[*:1]; AEEA = NCCOCCOCC(=O)O; Aib = CC(C)(N)C(=O)O
Experiments:
[1] = Body weight of diet-induced-obesity mice after subcutaneous administration; type: in vivo, C57BL/6 mice; settings: for rate of body weight change: DIO mice
Description: (§1) High-fat food-induced-obesity male C57BL/6 mice (weighing 35-55 g, aged 10-12 weeks, purchased from Shanghai Jiesijie Laboratory Animal Co., Ltd.) were tested. […] According to the experimental design, the body weight of each mouse was measured and recorded on day 0, day 3, day 6, and so on to day 27, the average body weight of each group of mice was calculated, and body weight change curves were plotted by taking the body weight on the first day as the standard. At the end, the fat and other visceral organs of each part of the mice were taken out and weighed, and the viscera/brain ratio for fat in each part of each mouse was calculated. The effect of the drug on the fat was determined by comparing the change in the viscera/brain ratio for fat of different parts of each group of mice.

[2] = Viscera/brain ratio for fat mass in diet-induced-obesity mice; type: in vivo, C57BL/6 mice; settings: DIO mice; for viscera/brain ratio for fat mass, Epididymal fat / viscera/brain ratio for fat mass, Inguinal fat / viscera/brain ratio for fat mass, Mesenteric fat / viscera/brain ratio for fat mass, Perirenal fat / viscera/brain ratio for fat mass, Scapular fat / viscera/brain ratio for fat mass, Subcutaneous fat: X ± s
Description: as §1

**Q.** With `CC[C@H](C)[C@H](NC(=O)[C@H](CCCCN)NC(=O)[C@H](CCC(=O)O)NC(=O)[C@H](CCCCNC(=O)COCCOCCNC(=O)COCCOCCNC(=O)CC[C@H](NC(=O)CCCCCCCCCCCCCCCCCCC(=O)O)C(=O)O)NC(=O)[C@H](Cc1ccc(O)cc1)NC(=O)[C@@H](NC(=O)[C@H](CO)NC(=O)[C@H](Cc1ccc(O)cc1)NC(=O)[C@H](CC(=O)O)NC(=O)[C@H](CO)NC(=O)[C@@H](NC(=O)[C@H](Cc1ccccc1)NC(=O)[C@@H](NC(=O)CNC(=O)[C@H](CCC(=O)O)NC(=O)C(C)(C)NC(=O)[C@@H](N)Cc1ccc(O)cc1)[C@@H](C)O)[C@@H](C)O)[C@@H](C)CC)C(=O)N[C@@H](C)C(=O)N[C@@H](C)C(=O)N[C@@H](CCC(N)=O)C(=O)N[C@@H](CCC(=O)O)C(=O)N[C@@H](Cc1ccccc1)C(=O)N[C@H](C(=O)N[C@@H](CC(N)=O)C(=O)N[C@@H](Cc1c[nH]c2ccccc12)C(=O)N[C@@H](CC(C)C)C(=O)N[C@@H](CC(C)C)C(=O)N[C@@H](C)C(=O)NCC(=O)NCC(=O)N1CCC[C@H]1C(=O)N[C@@H](CO)C(=O)N[C@@H](CO)C(=O)NCC(=O)N[C@@H](C)C(=O)N1CCC[C@H]1C(=O)N1CCC[C@H]1C(=O)N1CCC[C@H]1C(=O)N[C@@H](CO)C(N)=O)C(C)C` [Compound 18#] (H-Y[Aib]EGTFTSDYSIYK([AEEA-AEEA-γGlu-C20 diacid])EKIAAQEFVNWLLAGGPSSGAPPPS-NH2) as the compound, how does the “rate of body weight change” value ([1]; 10 nmol/kg s.c. every 3 days, day 8) read?
**A.** −20.1%

**Q.** And the “rate of body weight change” value ([1]; 10 nmol/kg s.c. every 3 days, day 9)?
**A.** −20.3%

**Q.** And the “rate of body weight change” value ([1]; 10 nmol/kg s.c. every 3 days, day 10)?
**A.** −23.4%

**Q.** What about the “rate of body weight change” value ([1]; 10 nmol/kg s.c. every 3 days, day 11) of the same compound?
**A.** −23.9%

**Q.** What about the “rate of body weight change” value ([1]; 10 nmol/kg s.c. every 3 days, day 12) of the same compound?
**A.** −23.5%

**Q.** What about the “rate of body weight change” value ([1]; 10 nmol/kg s.c. every 3 days, day 13) of the same compound?
**A.** −26.4%

**Q.** What about the “rate of body weight change” value ([1]; 10 nmol/kg s.c. every 3 days, day 14) of the same compound?
**A.** −25.1%

**Q.** And the “rate of body weight change” value ([1]; 10 nmol/kg s.c. every 3 days, day 15)?
**A.** −23.4%

**Q.** And the “rate of body weight change” value ([1]; 10 nmol/kg s.c. every 3 days, day 16)?
**A.** −26.6%

**Q.** What about the “rate of body weight change” value ([1]; 10 nmol/kg s.c. every 3 days, day 17) of the same compound?
**A.** −25.7%

**Q.** And the “rate of body weight change” value ([1]; 10 nmol/kg s.c. every 3 days, day 18)?
**A.** −24.6%

**Q.** What about the “rate of body weight change” value ([1]; 10 nmol/kg s.c. every 3 days, day 19) of the same compound?
**A.** −27.5%

**Q.** What about the “rate of body weight change” value ([1]; 10 nmol/kg s.c. every 3 days, day 20) of the same compound?
**A.** −27.3%

**Q.** What about the “rate of body weight change” value ([1]; 10 nmol/kg s.c. every 3 days, day 21) of the same compound?
**A.** −24.8%

**Q.** What about the “rate of body weight change” value ([1]; 10 nmol/kg s.c. every 3 days, day 22) of the same compound?
**A.** −28.1%

**Q.** And the “rate of body weight change” value ([1]; 10 nmol/kg s.c. every 3 days, day 23)?
**A.** −27.1%

**Q.** What about the “rate of body weight change” value ([1]; 10 nmol/kg s.c. every 3 days, day 24) of the same compound?
**A.** −26%

**Q.** And the “rate of body weight change” value ([1]; 10 nmol/kg s.c. every 3 days, day 25)?
**A.** −28.5%

**Q.** What about the “rate of body weight change” value ([1]; 10 nmol/kg s.c. every 3 days, day 26) of the same compound?
**A.** −27.8%

**Q.** What about the “rate of body weight change” value ([1]; 10 nmol/kg s.c. every 3 days, day 27) of the same compound?
**A.** −24.8%

**Q.** What about the “rate of body weight change” value ([1]; 10 nmol/kg s.c. every 3 days, day 28) of the same compound?
**A.** −28.2%

**Q.** What about the “rate of body weight change” value ([1]; 100 nmol/kg s.c. every 3 days, day 0 (before administration)) of the same compound?
**A.** 0%

**Q.** And the “rate of body weight change” value ([1]; 100 nmol/kg s.c. every 3 days, day 1)?
**A.** −6.3%

**Q.** What about the “rate of body weight change” value ([1]; 100 nmol/kg s.c. every 3 days, day 2) of the same compound?
**A.** −10.9%

**Q.** What about the “rate of body weight change” value ([1]; 100 nmol/kg s.c. every 3 days, day 3) of the same compound?
**A.** −13.2%

**Q.** What about the “rate of body weight change” value ([1]; 100 nmol/kg s.c. every 3 days, day 4) of the same compound?
**A.** −15.7%

**Q.** And the “rate of body weight change” value ([1]; 100 nmol/kg s.c. every 3 days, day 5)?
**A.** −19.2%

**Q.** What about the “rate of body weight change” value ([1]; 100 nmol/kg s.c. every 3 days, day 6) of the same compound?
**A.** −21.8%

**Q.** What about the “rate of body weight change” value ([1]; 100 nmol/kg s.c. every 3 days, day 7) of the same compound?
**A.** −24.7%

**Q.** What about the “rate of body weight change” value ([1]; 100 nmol/kg s.c. every 3 days, day 8) of the same compound?
**A.** −27.6%

**Q.** And the “rate of body weight change” value ([1]; 100 nmol/kg s.c. every 3 days, day 9)?
**A.** −29.6%

**Q.** What about the “rate of body weight change” value ([1]; 100 nmol/kg s.c. every 3 days, day 10) of the same compound?
**A.** −31.6%

**Q.** What about the “rate of body weight change” value ([1]; 100 nmol/kg s.c. every 3 days, day 11) of the same compound?
**A.** −33.7%

**Q.** What about the “rate of body weight change” value ([1]; 100 nmol/kg s.c. every 3 days, day 12) of the same compound?
**A.** −34.4%

**Q.** What about the “rate of body weight change” value ([1]; 100 nmol/kg s.c. every 3 days, day 13) of the same compound?
**A.** −35.6%

**Q.** And the “rate of body weight change” value ([1]; 100 nmol/kg s.c. every 3 days, day 14)?
**A.** −36.7%

**Q.** And the “rate of body weight change” value ([1]; 100 nmol/kg s.c. every 3 days, day 15)?
**A.** −35.7%

**Q.** And the “rate of body weight change” value ([1]; 100 nmol/kg s.c. every 3 days, day 17)?
**A.** −38.2%

**Q.** And the “rate of body weight change” value ([1]; 100 nmol/kg s.c. every 3 days, day 18)?
**A.** −37.8%

**Q.** And the “rate of body weight change” value ([1]; 100 nmol/kg s.c. every 3 days, day 19)?
**A.** −38.5%

**Q.** What about the “rate of body weight change” value ([1]; 100 nmol/kg s.c. every 3 days, day 20) of the same compound?
**A.** −39%

**Q.** What about the “rate of body weight change” value ([1]; 100 nmol/kg s.c. every 3 days, day 21) of the same compound?
**A.** −37.4%

**Q.** What about the “rate of body weight change” value ([1]; 100 nmol/kg s.c. every 3 days, day 22) of the same compound?
**A.** −38.3%

**Q.** And the “rate of body weight change” value ([1]; 100 nmol/kg s.c. every 3 days, day 23)?
**A.** −38%

**Q.** What about the “rate of body weight change” value ([1]; 100 nmol/kg s.c. every 3 days, day 24) of the same compound?
**A.** −36.8%

**Q.** And the “rate of body weight change” value ([1]; 100 nmol/kg s.c. every 3 days, day 25)?
**A.** −38.6%

**Q.** And the “rate of body weight change” value ([1]; 100 nmol/kg s.c. every 3 days, day 26)?
**A.** −38.9%

**Q.** And the “rate of body weight change” value ([1]; 100 nmol/kg s.c. every 3 days, day 27)?
**A.** −36.8%

**Q.** What about the “rate of body weight change” value ([1]; 100 nmol/kg s.c. every 3 days, day 28) of the same compound?
**A.** −37.9%

**Q.** And the body weight reduced ([1]; high-fat food-induced-obesity mice, 10 nmol/kg, day 27)?
**A.** more than 20.0%

**Q.** What about the “viscera/brain ratio for fat mass, Epididymal fat” value ([2]; 3 nmol/kg) of the same compound?
**A.** 254.6 ± 113.4 %

**Q.** What about the “viscera/brain ratio for fat mass, Inguinal fat” value ([2]; 3 nmol/kg) of the same compound?
**A.** 281.5 ± 140.1 %

**Q.** And the “viscera/brain ratio for fat mass, Mesenteric fat” value ([2]; 3 nmol/kg)?
**A.** 84.8 ± 41.3 %

**Q.** And the “viscera/brain ratio for fat mass, Perirenal fat” value ([2]; 3 nmol/kg)?
**A.** 159.2 ± 87.6 %

**Q.** What about the “viscera/brain ratio for fat mass, Scapular fat” value ([2]; 3 nmol/kg) of the same compound?
**A.** 48 ± 15.3%

**Q.** What about the “viscera/brain ratio for fat mass, Subcutaneous fat” value ([2]; 3 nmol/kg) of the same compound?
**A.** 129 ± 62 %

**Q.** And the “viscera/brain ratio for fat mass, Epididymal fat” value ([2]; 10 nmol/kg)?
**A.** 211.7 ± 80.7 %

**Q.** And the “viscera/brain ratio for fat mass, Inguinal fat” value ([2]; 10 nmol/kg)?
**A.** 194.4 ± 86.2 %

**Q.** And the “viscera/brain ratio for fat mass, Mesenteric fat” value ([2]; 10 nmol/kg)?
**A.** 53.3 ± 14.6 %

**Q.** And the “viscera/brain ratio for fat mass, Perirenal fat” value ([2]; 10 nmol/kg)?
**A.** 109.4 ± 57.1 %

**Q.** And the “viscera/brain ratio for fat mass, Scapular fat” value ([2]; 10 nmol/kg)?
**A.** 42.5 ± 17%

**Q.** What about the “viscera/brain ratio for fat mass, Subcutaneous fat” value ([2]; 10 nmol/kg) of the same compound?
**A.** 122 ± 73.2 %

**Q.** What about the “viscera/brain ratio for fat mass, Epididymal fat” value ([2]; 100 nmol/kg) of the same compound?
**A.** 102.9 ± 32.2 %

**Q.** What about the “viscera/brain ratio for fat mass, Inguinal fat” value ([2]; 100 nmol/kg) of the same compound?
**A.** 92 ± 34.5 %

**Q.** What about the “viscera/brain ratio for fat mass, Mesenteric fat” value ([2]; 100 nmol/kg) of the same compound?
**A.** 27.4 ± 11.1 %

**Q.** And the “viscera/brain ratio for fat mass, Perirenal fat” value ([2]; 100 nmol/kg)?
**A.** 46.6 ± 18.2 %

**Q.** And the “viscera/brain ratio for fat mass, Scapular fat” value ([2]; 100 nmol/kg)?
**A.** 32.3 ± 7%

**Q.** And the “viscera/brain ratio for fat mass, Subcutaneous fat” value ([2]; 100 nmol/kg)?
**A.** 57.1 ± 21.2 %

**Q.** And the “content of fat of each part (except scapular fat) relative to placebo” value ([2]; all dose test groups)?
**A.** significantly reduced
